Data set [1] deals with T1, Nuclear receptor subfamily 1 group D member 1 (Homo sapiens, UniProt P20393).
T1 sequence (P20393 whole entry): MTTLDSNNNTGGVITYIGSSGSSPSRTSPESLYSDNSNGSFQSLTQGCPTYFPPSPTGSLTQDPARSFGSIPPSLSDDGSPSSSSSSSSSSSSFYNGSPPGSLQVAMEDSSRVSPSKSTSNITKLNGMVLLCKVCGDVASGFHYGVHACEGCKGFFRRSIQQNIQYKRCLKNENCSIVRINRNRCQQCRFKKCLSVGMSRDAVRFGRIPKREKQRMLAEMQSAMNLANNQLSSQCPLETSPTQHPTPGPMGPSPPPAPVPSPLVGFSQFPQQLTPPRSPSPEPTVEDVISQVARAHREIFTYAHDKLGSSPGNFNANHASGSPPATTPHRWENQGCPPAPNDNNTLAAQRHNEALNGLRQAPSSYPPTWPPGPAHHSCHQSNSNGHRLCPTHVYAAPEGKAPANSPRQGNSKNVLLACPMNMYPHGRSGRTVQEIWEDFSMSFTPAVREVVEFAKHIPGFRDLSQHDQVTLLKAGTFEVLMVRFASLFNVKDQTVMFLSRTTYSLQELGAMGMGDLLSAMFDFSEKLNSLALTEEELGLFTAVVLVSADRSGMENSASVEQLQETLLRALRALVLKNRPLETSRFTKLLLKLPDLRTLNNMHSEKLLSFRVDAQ
Kind of data set: Agonist activity at his6-tagged human REV-ERBalpha LBD (281 to 614 residues) expressed in Escherichia coli assessed as increase in SMRT corepressor peptide […] by TR-FRET assay incubated for 2 hrs by TR-FRET assay. A general note: Time-resolved FRET reads energy transfer from a long-lived donor to a nearby acceptor.

A short description of data set [2]: Metabolic stability in mouse liver microsome assessed as half life. It counts as ADME. As to conditions: liver microsomes. In general terms: Microsomes from liver hold many membrane-bound enzymes, among them those of drug oxidation.
Data set [3] can be described thus: Metabolic stability in human liver microsome assessed as half life. The class given is ADME. As to conditions: liver microsomes.
Data set [4] concerns the target CYP3A4 (Homo sapiens, UniProt P08684). The data set is described as follows: Inhibition of CYP3A4 (unknown origin) at 10 uM relative to control. The class given is ADME.
Data set [5] can be described thus: Cmax in mouse at 50 mg/kg, ip measured at 2 hrs. The class given is ADME, organism-based. Also on record: dose 50 mg/kg, time 2 hrs, route ip. The settings on record: in vivo.
Data set [6] is described as follows: Cmax in mouse at 50 mg/kg, ip measured for 12 hrs. It counts as ADME, organism-based. Also on record: time 12 hrs, dose 50 mg/kg, route ip. The settings on record: in vivo.
Data set [7] deals with T1, Nuclear receptor subfamily 1 group D member 1. Kind of data set: Agonist activity at REV-ERBalpha LBD in HEK293 cells co-transfected with pG5-UAS pCMV-Gal4 incubated for 18 hrs by multimode plate reader analysis. It counts as cell-based.
Data set [8] deals with T2, Nuclear receptor subfamily 1 group D member 2 (Homo sapiens) (UniProt Q14995).
T2 sequence (whole entry): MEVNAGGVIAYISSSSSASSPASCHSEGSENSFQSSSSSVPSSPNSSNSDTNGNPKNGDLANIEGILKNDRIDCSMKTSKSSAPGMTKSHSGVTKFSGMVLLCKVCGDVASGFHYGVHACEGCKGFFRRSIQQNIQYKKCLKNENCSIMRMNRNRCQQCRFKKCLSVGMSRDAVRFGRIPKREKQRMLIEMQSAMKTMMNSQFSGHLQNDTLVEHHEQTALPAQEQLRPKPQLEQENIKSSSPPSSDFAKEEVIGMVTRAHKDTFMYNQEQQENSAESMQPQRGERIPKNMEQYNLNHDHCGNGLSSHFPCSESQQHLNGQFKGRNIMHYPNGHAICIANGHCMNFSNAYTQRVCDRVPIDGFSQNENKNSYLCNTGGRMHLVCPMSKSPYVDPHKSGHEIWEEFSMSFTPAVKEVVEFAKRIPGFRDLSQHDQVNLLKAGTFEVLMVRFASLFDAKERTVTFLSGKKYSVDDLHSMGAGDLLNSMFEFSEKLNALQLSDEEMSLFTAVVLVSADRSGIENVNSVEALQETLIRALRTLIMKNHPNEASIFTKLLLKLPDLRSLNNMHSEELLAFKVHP
The data set is described as follows: Agonist activity at human REV-ERBbeta.

Data set [9] deals with CYP2D6 (Homo sapiens, UniProt P10635). Kind of data set: Inhibition of CYP2D6 (unknown origin) at 10 uM relative to control. The class given is ADME.
CYP2D6, sequence (P10635 whole entry): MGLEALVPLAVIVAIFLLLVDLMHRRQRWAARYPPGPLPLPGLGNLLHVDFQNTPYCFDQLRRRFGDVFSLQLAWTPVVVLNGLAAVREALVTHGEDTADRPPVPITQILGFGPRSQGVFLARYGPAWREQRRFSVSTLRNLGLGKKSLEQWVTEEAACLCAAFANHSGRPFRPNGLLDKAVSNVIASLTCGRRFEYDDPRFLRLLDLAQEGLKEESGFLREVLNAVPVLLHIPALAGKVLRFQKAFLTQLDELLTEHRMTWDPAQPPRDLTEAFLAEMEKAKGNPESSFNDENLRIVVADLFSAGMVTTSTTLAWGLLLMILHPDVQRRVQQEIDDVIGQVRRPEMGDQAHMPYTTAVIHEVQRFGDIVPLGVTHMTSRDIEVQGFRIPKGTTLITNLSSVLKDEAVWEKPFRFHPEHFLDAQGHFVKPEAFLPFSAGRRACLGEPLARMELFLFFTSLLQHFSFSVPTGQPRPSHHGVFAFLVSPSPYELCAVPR
Data set [10] concerns the target T3, CYP1A2 (Homo sapiens, UniProt P05177).
T3 sequence (P05177 whole entry): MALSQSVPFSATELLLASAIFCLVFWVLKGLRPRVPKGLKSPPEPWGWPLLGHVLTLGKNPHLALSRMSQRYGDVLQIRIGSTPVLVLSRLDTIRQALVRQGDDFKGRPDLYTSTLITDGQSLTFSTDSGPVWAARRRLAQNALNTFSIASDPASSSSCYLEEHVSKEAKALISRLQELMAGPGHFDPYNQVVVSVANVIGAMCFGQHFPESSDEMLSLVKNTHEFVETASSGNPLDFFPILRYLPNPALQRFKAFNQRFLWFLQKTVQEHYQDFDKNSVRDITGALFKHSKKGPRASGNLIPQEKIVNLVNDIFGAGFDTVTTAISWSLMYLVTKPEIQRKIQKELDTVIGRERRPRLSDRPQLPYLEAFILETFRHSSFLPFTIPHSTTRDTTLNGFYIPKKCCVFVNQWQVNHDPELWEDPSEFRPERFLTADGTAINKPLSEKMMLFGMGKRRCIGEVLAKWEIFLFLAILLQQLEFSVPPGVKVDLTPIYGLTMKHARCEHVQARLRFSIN
The data set is described as follows: Inhibition of CYP1A2 (unknown origin) at 10 uM relative to control. It counts as ADME.

The target in data set [11] is CYP2C9 (Homo sapiens, UniProt P11712). The data set is described as follows: Inhibition of CYP2C9 (unknown origin) at 10 uM relative to control. The class given is ADME.
CYP2C9, sequence (P11712 whole entry): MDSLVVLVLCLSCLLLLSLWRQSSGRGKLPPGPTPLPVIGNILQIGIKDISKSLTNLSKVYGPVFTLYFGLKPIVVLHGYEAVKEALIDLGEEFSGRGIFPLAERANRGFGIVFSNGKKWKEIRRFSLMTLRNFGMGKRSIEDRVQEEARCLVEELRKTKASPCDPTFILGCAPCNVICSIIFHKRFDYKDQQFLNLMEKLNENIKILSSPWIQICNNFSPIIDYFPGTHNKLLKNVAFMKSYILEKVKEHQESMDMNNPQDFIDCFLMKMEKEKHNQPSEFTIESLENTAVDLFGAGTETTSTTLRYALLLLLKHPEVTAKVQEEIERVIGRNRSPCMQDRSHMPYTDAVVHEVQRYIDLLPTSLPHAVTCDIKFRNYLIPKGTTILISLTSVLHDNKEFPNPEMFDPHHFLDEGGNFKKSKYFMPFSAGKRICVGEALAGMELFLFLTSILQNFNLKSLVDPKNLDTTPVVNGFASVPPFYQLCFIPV
Data set [12] deals with Mus musculus. The data set is described as follows: Protection against experimental autoimmune encephalomyelitis C57BL/6 mouse model assessed as disease onset at 25 to 50 mg/kg, ip bid. As to conditions: dose 25-50 mg/kg. The class given is functional, organism-based.
Data set [13] concerns Mus musculus. Kind of data set: Protection against experimental autoimmune encephalomyelitis C57BL/6 mouse model assessed as reduction in disease severity at 25 to 50 mg/kg, ip bid. The class given is functional, organism-based. As to conditions: dose 25-50 mg/kg.
The nature of data set [14]: Toxicity in experimental autoimmune encephalomyelitis C57BL/6 mouse model assessed as animal weight loss at 25 to 50 mg/kg, ip bid. It counts as organism-based. As to conditions: in vivo, dose 25-50 mg/kg.
In data set [15] the test system is Mus musculus. The data set is described as follows: Protection against experimental autoimmune encephalomyelitis C57BL/6 mouse model assessed as decrease in frequency of T cells at 25 to 50 mg/kg, ip bid by flow cytometry analysis. As to conditions: T-cell, dose 25-50 mg/kg. It counts as functional, organism-based.
In data set [16] the test system is Mus musculus. Kind of data set: Protection against experimental autoimmune encephalomyelitis C57BL/6 mouse model assessed as decrease in number of T cells at 25 to 50 mg/kg, ip bid by flow cytometry analysis. It counts as functional, organism-based. The settings on record: T-cell, dose 25-50 mg/kg.
Data set [17] has as its system Mus musculus. The data set is described as follows: In-vivo agonist activity at REV-ERBalpha in experimental autoimmune encephalomyelitis C57BL/6 mouse model assessed as reduction in bmal1 mRNA expression by RT-PCR analysis. The class given is functional.
Data set [18] has as its system Mus musculus. Kind of data set: In-vivo agonist activity at REV-ERBalpha in experimental autoimmune encephalomyelitis C57BL/6 mouse model assessed as reduction in clock mRNA expression by RT-PCR analysis. The class given is functional.
The test system of data set [19] is Th17. Kind of data set: Downregulation of IL-17A expression in human Th17 cells. It counts as functional, cell-based. The settings on record: dose 1.25-10 µM.
The nature of data set [20]: Cytotoxicity against human Th17 cells assessed as reduction in cell viability at 1.25 to 10 uM. The class given is toxicity, cell-based. As to conditions: th17, 10 µM, dose 1.25-10 µM.

Active and inactive are the calls of the source.

A word on the EC50: it is the concentration that produces a half-maximal response. As usually defined, the half-life is the time needed for the level to fall by half in the phase considered. By inhibition is commonly meant the share of the control response that was lost under treatment. For orientation: Cmax means the peak of the concentration-time curve.

CYP3A4, sequence (P08684 whole entry): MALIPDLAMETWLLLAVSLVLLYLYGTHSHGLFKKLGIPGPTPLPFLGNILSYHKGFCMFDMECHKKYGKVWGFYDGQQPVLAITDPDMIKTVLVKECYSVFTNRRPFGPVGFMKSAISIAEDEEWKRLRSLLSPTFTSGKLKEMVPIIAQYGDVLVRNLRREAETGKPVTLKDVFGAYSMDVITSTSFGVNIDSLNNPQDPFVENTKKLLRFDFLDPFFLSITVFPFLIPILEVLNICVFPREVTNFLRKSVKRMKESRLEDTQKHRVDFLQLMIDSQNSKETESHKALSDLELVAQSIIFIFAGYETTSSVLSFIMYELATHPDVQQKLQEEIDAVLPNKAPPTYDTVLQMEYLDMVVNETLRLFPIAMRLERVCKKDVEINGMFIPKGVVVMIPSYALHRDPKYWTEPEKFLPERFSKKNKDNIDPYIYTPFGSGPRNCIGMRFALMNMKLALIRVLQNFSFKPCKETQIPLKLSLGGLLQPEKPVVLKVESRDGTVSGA

`CC(C)Cn1cc(CCNS(=O)(=O)C2CC2)c2ccc(-c3ccncc3)cc21`: the EC50 in [1] was 25 nM.

Take `CC(C)Cn1cc(CCNS(=O)(=O)N(C)C)c2ccc(-c3cncnc3)cc21`: the EC50 in data set [1] is 2900 nM.

As to `CC(C)Cn1cc(C(NS(=O)(=O)C2CC2)C(F)(F)F)c2ccc(-c3ccccc3C(F)(F)F)cc21` (stereo not given), the values for the concentration giving a half-maximal response (EC50) in [1] and in [7] were 110 nM and 500 nM, respectively. Further, the half-life in [2] worked out at 32 min; in data set [3], 76 min. For the same compound, the inhibition at 10 µM in data set [4], in data set [9], in data set [10] and in [11] was less than 30% each time. Moreover, the Cmax in [5] was 12.2 µM; in [6] it was roughly 0.8 µM. Further, the result in data set [8] was inactive. Further, the outcome in [12], in data set [13], in [15], in data set [16], in data set [17] and in [18] was Active. Besides, the result in data set [19] was Active. Further, the Activity entry in data set [14] and in data set [20] was “Non-Toxic” throughout.

As to `CC(C)Cn1cc(C(C)(C)NS(=O)(=O)C2CC2)c2ccc(-c3ccccc3C(F)(F)F)cc21`, the half-life worked out at 3 min in data set [2] and 80 min in [3].

With `CC(C)Cn1cc(CCNS(=O)(=O)N(C)C)c2ccc(-c3cccnc3)cc21`, in data set [1], the EC50 worked out at 160 nM. The same compound displayed an inhibition at 10 µM in [4] of 96%.

Take `CC(C)Cn1cc(CCNS(=O)(=O)N(C)C)c2ccccc21`: the EC50 in data set [1] was 990 nM.

Consider `CC(C)Cn1cc(CCNS(=O)(=O)C2CC2)c2ccc(-c3ccccc3C(F)(F)F)cc21`, for which the half-life amounted to 3 min in data set [2] and 4 min in [3].

`CC(C)Cn1cc(CNS(=O)(=O)C2CC2)c2ccc(-c3ccccc3C(F)(F)F)cc21`: the half-life in [2] and in [3] was 5 min throughout.

On to `CC(C)Cn1cc(CCNS(=O)(=O)N(C)C)c2ccc(-c3ccccn3)cc21`, for which the concentration for a half-maximal effect (EC50) in data set [1] was found to be 1000 nM. For the same compound, in data set [4], the inhibition at 10 µM stood at 96%.

For the compound `CC(C)Cn1cc(CCNS(=O)(=O)N(C)C)c2ccc(-c3ccccc3)cc21`, the inhibition at 10 µM in data set [4] turned out to be 22%.

With `CC(C)Cn1cc(CCNS(=O)(=O)N(C)C)c2ccc(-c3cccc(C#N)c3)cc21`, the EC50 in [1] stood at 370 nM.

Turning to `CC(C)Cn1cc(C(C)NS(=O)(=O)C2CC2)c2ccc(-c3ccccc3C(F)(F)F)cc21` (stereo not given), the EC50 in [1] was 7 nM. Moreover, the half-life turned out to be 10 min in data set [2] and 9 min in [3].

Take `CC(C)Cn1cc(CCNS(=O)(=O)N(C)C)c2ccc(-c3ccc(F)cc3)cc21`: in data set [1], the EC50 was 790 nM.

`CC(C)Cn1cc(CCNS(=O)(=O)N(C)C)c2ccc(-c3cnn(C)c3)cc21`: in [1], the EC50 was greater than 5000 nM.

The values are drawn from ChEMBL document CHEMBL5370656, “Structure-Activity Relationship and Biological Investigation of a REV-ERBα-Selective Agonist SR-29065 (34) for Autoimmune Disorders” (J Med Chem, 2023).
